How the values were obtained:
Assay type in all cases: in vivo
[1] = test system: winter barley (Hordeum vulgare); assay: Test C postemergence greenhouse test, plant response rating 0-100; conditions: for Plant response rating, Barley: 250 g ai/ha, scale 0 to 100
How it was run: (§1)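 Formulated compounds applied postemergence; plants 1- to 4-leaf stage. Evaluated visually vs. untreated controls after roughly two weeks (13–15 d) under greenhouse conditions; 100 denotes complete control.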

[2] = test system: windgrass (Apera spica-venti); assay: as above; conditions: for Plant response rating, Windgrass: 250 g ai/ha, scale 0 to 100
How it was run: as §1

[3] = test system: corn (Zea mays); assay: Test C pre-/postemergence greenhouse test, plant response rating 0-100; conditions: Postemergence; for Plant response rating, Corn: 250 g ai/ha, scale 0 to 100
How it was run: (§2)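 Plants were scored visually against controls 13–15 days after treatment on a 0–100 scale, 100 meaning complete control. Test chemicals, formulated in surfactant-containing non-phytotoxic solvent, went preemergence onto seeds in loam–sand blend or postemergence onto 1- to 4-leaf plants (2–18 cm) grown in peat-based mix.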

[4] = test system: pigweed (Amaranthus retroflexus); assay: as above; conditions: Postemergence; for Plant response rating, Pigweed: 250 g ai/ha, scale 0 to 100
How it was run: as §2

[5] = test system: winter wheat (Triticum aestivum); assay: as above; conditions: Postemergence; for Plant response rating, Wheat: 250 g ai/ha, scale 0 to 100
How it was run: as §2

[6] = test system: yellow nutsedge (Cyperus esculentus); assay: as above; conditions: Postemergence; for Plant response rating, Nutsedge, Yellow: 250 g ai/ha, scale 0 to 100
How it was run: as §2

[7] = test system: lambsquarters (Chenopodium album); assay: as above; conditions: Postemergence; for Plant response rating, Lambsquarters: 250 g ai/ha, scale 0 to 100
How it was run: as §2

[8] = test system: large (Lg) crabgrass (Digitaria sanguinalis); assay: as above; conditions: Postemergence; for Plant response rating, Crabgrass, Large: 250 g ai/ha, scale 0 to 100
How it was run: as §2

[9] = test system: ragweed (common ragweed, Ambrosia elatior); assay: as above; conditions: Postemergence; for Plant response rating, Ragweed: 250 g ai/ha, scale 0 to 100;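 as to all read-outs here: 0 is no effect and 100 is complete control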
How it was run: as §2

[10] = test system: blackgrass (Alopecurus myosuroides); assay: as above; conditions: Postemergence; for Plant response rating, Blackgrass: 250 g ai/ha, scale 0 to 100;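 as to all read-outs here: 0 is no effect and 100 is complete control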
How it was run: as §2

[11] = test system: galium (catchweed bedstraw, Galium aparine); assay: as above; conditions: Postemergence; for Plant response rating, Galium: 250 g ai/ha, scale 0 to 100
How it was run: as §2

[12] = test system: johnsongrass (Sorghum halepense); assay: as above; conditions: Postemergence; for Plant response rating, Johnsongrass: 250 g ai/ha, scale 0 to 100
How it was run: as §2

[13] = test system: morningglory (Ipomoea coccinea); assay: as above; conditions: Postemergence; for Plant response rating, Morningglory: 250 g ai/ha, scale 0 to 100
How it was run: as §2

[14] = test system: velvetleaf (Abutilon theophrasti); assay: as above; conditions: Postemergence; for Plant response rating, Velvetleaf: 250 g ai/ha, scale 0 to 100
How it was run: as §2

For `CC(C)n1cc(C(=O)c2ccccc2)c(-c2cc(Cl)cc(Cl)c2)n1` [Compound 44], the “Plant response rating (0 to 100), Barley” value ([1]; 31 g ai/ha) was 0, the “Plant response rating (0 to 100), Barley” value ([1]; 62 g ai/ha) was 0 and the “Plant response rating (0 to 100), Barley” value ([1]; 125 g ai/ha) was 0. The “Plant response rating, Barley” value [1] was 0, the “Plant response rating (0 to 100), Windgrass” value ([2]; 62 g ai/ha) was 0 and the “Plant response rating (0 to 100), Windgrass” value ([2]; 125 g ai/ha) was 0. The “Plant response rating, Windgrass” value [2] was 0, the “Plant response rating (0 to 100), Corn” value ([3]; 31 g ai/ha) was 0 and the “Plant response rating (0 to 100), Corn” value ([3]; 62 g ai/ha) was 5. For the same molecule, the “Plant response rating (0 to 100), Corn” value ([3]; 125 g ai/ha) was 5, the “Plant response rating, Corn” value [3] was 10 and the “Plant response rating (0 to 100), Pigweed” value ([4]; 62 g ai/ha) was 60. For the same molecule, the “Plant response rating (0 to 100), Pigweed” value ([4]; 125 g ai/ha) was 60, the “Plant response rating, Pigweed” value [4] was 100 and the “Plant response rating (0 to 100), Wheat” value ([5]; 62 g ai/ha) was 0. For the same molecule, the “Plant response rating (0 to 100), Wheat” value ([5]; 125 g ai/ha) was 0, the “Plant response rating, Wheat” value [5] was 0 and the “Plant response rating (0 to 100), Nutsedge, Yellow” value ([6]; 62 g ai/ha) was 0. The “Plant response rating (0 to 100), Nutsedge, Yellow” value ([6]; 125 g ai/ha) was 0, the “Plant response rating, Nutsedge, Yellow” value [6] was 0 and the “Plant response rating (0 to 100), Lambsquarters” value ([7]; 62 g ai/ha) was 45. The “Plant response rating (0 to 100), Lambsquarters” value ([7]; 125 g ai/ha) was 45, the “Plant response rating, Lambsquarters” value [7] was 55 and the “Plant response rating (0 to 100), Crabgrass, Large” value ([8]; 31 g ai/ha) was 0. The “Plant response rating (0 to 100), Crabgrass, Large” value ([8]; 62 g ai/ha) was 5, the “Plant response rating (0 to 100), Crabgrass, Large” value ([8]; 125 g ai/ha) was 5 and the “Plant response rating, Crabgrass, Large” value [8] was 10. For the same molecule, the “Plant response rating (0 to 100), Ragweed” value ([9]; 62 g ai/ha) was 5, the “Plant response rating (0 to 100), Ragweed” value ([9]; 125 g ai/ha) was 5 and the “Plant response rating, Ragweed” value [9] was 10. For the same molecule, the “Plant response rating (0 to 100), Blackgrass” value ([10]; 31 g ai/ha) was 0, the “Plant response rating (0 to 100), Blackgrass” value ([10]; 62 g ai/ha) was 0 and the “Plant response rating (0 to 100), Blackgrass” value ([10]; 125 g ai/ha) was 0. The “Plant response rating, Blackgrass” value [10] was 0, the “Plant response rating (0 to 100), Galium” value ([11]; 31 g ai/ha) was 0 and the “Plant response rating (0 to 100), Galium” value ([11]; 62 g ai/ha) was 0. For the same molecule, the “Plant response rating (0 to 100), Galium” value ([11]; 125 g ai/ha) was 0, the “Plant response rating, Galium” value [11] was 0 and the “Plant response rating (0 to 100), Johnsongrass” value ([12]; 62 g ai/ha) was 0. The “Plant response rating (0 to 100), Johnsongrass” value ([12]; 125 g ai/ha) was 0, the “Plant response rating, Johnsongrass” value [12] was 0 and the “Plant response rating (0 to 100), Morningglory” value ([13]; 62 g ai/ha) was 0. For the same molecule, the “Plant response rating (0 to 100), Morningglory” value ([13]; 125 g ai/ha) was 5, the “Plant response rating, Morningglory” value [13] was 5 and the “Plant response rating (0 to 100), Velvetleaf” value ([14]; 62 g ai/ha) was 60. The “Plant response rating (0 to 100), Velvetleaf” value ([14]; 125 g ai/ha) was 75 and the “Plant response rating, Velvetleaf” value [14] was 80.
In the case of `ON=C(c1ccccc1)c1c[nH]nc1-c1cc(Cl)cc(Cl)c1` [Compound 50], the “Plant response rating (0 to 100), Barley” value ([1]; 31 g ai/ha) is reported as 0, the “Plant response rating (0 to 100), Barley” value ([1]; 62 g ai/ha) is reported as 0 and the “Plant response rating (0 to 100), Barley” value ([1]; 125 g ai/ha) is reported as 0. For the same molecule, the “Plant response rating, Barley” value [1] was 0, the “Plant response rating (0 to 100), Windgrass” value ([2]; 62 g ai/ha) was 0 and the “Plant response rating (0 to 100), Windgrass” value ([2]; 125 g ai/ha) was 0. The “Plant response rating, Windgrass” value [2] was 0, the “Plant response rating (0 to 100), Corn” value ([3]; 31 g ai/ha) was 0 and the “Plant response rating (0 to 100), Corn” value ([3]; 62 g ai/ha) was 0. For the same molecule, the “Plant response rating (0 to 100), Corn” value ([3]; 125 g ai/ha) was 0, the “Plant response rating, Corn” value [3] was 0 and the “Plant response rating (0 to 100), Pigweed” value ([4]; 62 g ai/ha) was 75. For the same molecule, the “Plant response rating (0 to 100), Pigweed” value ([4]; 125 g ai/ha) was 100, the “Plant response rating, Pigweed” value [4] was 100 and the “Plant response rating (0 to 100), Wheat” value ([5]; 62 g ai/ha) was 0. The “Plant response rating (0 to 100), Wheat” value ([5]; 125 g ai/ha) was 0, the “Plant response rating, Wheat” value [5] was 0 and the “Plant response rating (0 to 100), Nutsedge, Yellow” value ([6]; 62 g ai/ha) was 0. For the same molecule, the “Plant response rating (0 to 100), Nutsedge, Yellow” value ([6]; 125 g ai/ha) was 0, the “Plant response rating, Nutsedge, Yellow” value [6] was 0 and the “Plant response rating (0 to 100), Lambsquarters” value ([7]; 62 g ai/ha) was 80. The “Plant response rating (0 to 100), Lambsquarters” value ([7]; 125 g ai/ha) was 100, the “Plant response rating, Lambsquarters” value [7] was 100 and the “Plant response rating (0 to 100), Crabgrass, Large” value ([8]; 31 g ai/ha) was 0. For the same molecule, the “Plant response rating (0 to 100), Crabgrass, Large” value ([8]; 62 g ai/ha) was 0, the “Plant response rating (0 to 100), Crabgrass, Large” value ([8]; 125 g ai/ha) was 0 and the “Plant response rating, Crabgrass, Large” value [8] was 0. For the same molecule, the “Plant response rating (0 to 100), Ragweed” value ([9]; 62 g ai/ha) was 0, the “Plant response rating (0 to 100), Ragweed” value ([9]; 125 g ai/ha) was 0 and the “Plant response rating, Ragweed” value [9] was 45. For the same molecule, the “Plant response rating (0 to 100), Blackgrass” value ([10]; 31 g ai/ha) was 0, the “Plant response rating (0 to 100), Blackgrass” value ([10]; 62 g ai/ha) was 0 and the “Plant response rating (0 to 100), Blackgrass” value ([10]; 125 g ai/ha) was 0. The “Plant response rating, Blackgrass” value [10] was 0, the “Plant response rating (0 to 100), Galium” value ([11]; 31 g ai/ha) was 0 and the “Plant response rating (0 to 100), Galium” value ([11]; 62 g ai/ha) was 0. For the same molecule, the “Plant response rating (0 to 100), Galium” value ([11]; 125 g ai/ha) was 5, the “Plant response rating, Galium” value [11] was 5 and the “Plant response rating (0 to 100), Johnsongrass” value ([12]; 62 g ai/ha) was 0. The “Plant response rating (0 to 100), Johnsongrass” value ([12]; 125 g ai/ha) was 0, the “Plant response rating, Johnsongrass” value [12] was 0 and the “Plant response rating (0 to 100), Morningglory” value ([13]; 62 g ai/ha) was 0. For the same molecule, the “Plant response rating (0 to 100), Morningglory” value ([13]; 125 g ai/ha) was 0, the “Plant response rating, Morningglory” value [13] was 0 and the “Plant response rating (0 to 100), Velvetleaf” value ([14]; 62 g ai/ha) was 75. The “Plant response rating (0 to 100), Velvetleaf” value ([14]; 125 g ai/ha) was 90 and the “Plant response rating, Velvetleaf” value [14] was 95.

From patent US10167262B2, “Herbicidal substituted 3-arylpyrazoles” (FMC CORPORATION, priority 2014, dated 2019)
